Experimental data: patent US9592226B2, “Solenopsin and derivatives, therapeutic compositions; and methods related thereto” (priority 2013, dated 2017)
Entries after “also recorded” stand apart in the source; their conditions may differ.

Tests used:
[1] = tested on: A375 (human melanoma) cells; assay: Proliferation study, A375 cells (Coulter Counter); assay type: cell-based; conditions: 10 μM, 24 h, cell count vs DMSO
Experimental: 50,000 cells/well were plated and treated for 24 h with each compound. The first DMSO bar in each chart serves as control for (+)-solenopsin A, (−)-solenopsin A, and ceramide C2. The second DMSO bar is the control for S11-S15.
(§1) Different analogs of solenopsin were synthesized (FIG. 1) in order to explore their structure-activity relationships. The aliphatic side chains of S14 and S13 are 4 and 8 carbons longer compared to solenopsin, respectively. S11 has an 8-carbon longer side chain, as well as an extra methyl group in the 4-position of the piperidine ring. S15 has an 11-carbon side chain similar to solenopsin, but the first carbon in the side chain is hydroxylated. Also, S15 lacks the methyl group in the 2-position of the piperidine ring. All the analogs together with (−)- and (+)-solenosin A, and the isomeric mixture of the two cis-isomers of solenopsin (S12) were tested, at 10 μM, on two different human melanoma cell lines (A375 and A2058) and one murine angiosarcoma cell line (SVR) (FIG. 2). The A375 and A2058 melanoma cell lines express mutant Braf and the SVR murine angiosarcoma cell line expresses mutant Hras. One important difference between the two human melanoma cell lines is the A2058 is PTEN null, whereas A375 is not.
(§2) A375 (human melanoma), A2058 (human melanoma), or SVR (murine angiosarcoma) cells were plated at a concentration of 50,000 cells/well. The cells were treated with 10 μM of (−)-solenopsin A, (+)-solenopsin A, or analogs (S11-S15) for 24 hours, at which point cells were counted with a Coulter Counter.

[2] = tested on: A2058 (human melanoma) cells; assay: Proliferation study, A2058 cells (Coulter Counter); assay type: cell-based; conditions: 10 μM, 24 h, cell count vs DMSO
Text: as §1, §2

[3] = tested on: SVR (murine angiosarcoma) cells; assay: Proliferation study, SVR cells (Coulter Counter); assay type: cell-based; conditions: 10 μM, 24 h, cell count vs DMSO
Text: as §1, §2

UM-SCC1A cells = assay: Oxygen consumption rate (Seahorse) in UM-SCC1A cells; assay type: cell-based, human; conditions: 10 μM, 24 h
Experimental: UM-SCC1A cells were plated 15,000/well and treated for 24 h with 10 μM of (+)-solenopsin A ((+) Sol. A), (−)-solenopsin A ((−) Sol. A), and solenopsin analogs S11-S15. Oxygen consumption rate (OCR) was measured as pmoles O2/minute using a Seahorse Biosciences instrument. Data shown are an average of three experiments±s.d.
At least not in Braf mutated cell lines, such as A375 and A2058. One possibility is that solenopsin, like ceramide, may also localize to mitochondria, and cause mitochondrial induced cell death. Cellular oxygen consumption rate can be indicative of mitochondrial function. Therefore, to investigate if solenopsin A and analogs do alter mitochondrial function, UM-SCC1A (human head and neck SCC) cells were then treated with 10 μM compound or the equivalent amount of DMSO and incubated for 24 hours. A SeaHorse Bioscience instrument was used to measure the oxygen consumption rate (OCR). […] Mitophagy can be one reason for decreased OCR, but further assays are needed to confirm the cause for the observed differences.
UM-SCC1A cells were plated 15,000 per well in 200 μl DMEM supplemented with 10% FBS and 1% penicillin-streptomycin in each well of a 96-well Seahorse plate and incubated overnight at 37° C. with 5% CO2. Cells were then treated with 10 μM compound or the equivalent amount of DMSO and incubated for 24 hours. OCR was measured as pmoles O2/minute using the Seahorse Biociences instrument per manufacturer's instructions. Protein amounts in each well were then quantified using the Thermo Scientific Pierce Protein Assay, per manufacturer's instructions.

A375 cells = assay: Superoxide (ROS) by DHE fluorescence, A375 cells; assay type: cell-based, human; conditions: 10 μM, 24 h
Experimental: Cells were treated for 24 h with 10 μM of (+)-solenopsin A ((+) Sol. A), (−)-solenopsin A ((−) Sol. A), and solenopsin analogs S11-S15. Cells were trypsined and incubated for 10 min in 10 μM dihydroethedium (DHE), followed by analysis with a FACScan flow cytometer. Data shown are an average of three experiments±s.d.
A375 or SVR cells were plated in 6 cm dishes. After cells had adhered to the plates, they were treated for 24 h with 10 μM DMSO solutions of (+)-solenopsin A, (−)-solenopsin A, or analogs (S11-S15) at which time the media was aspirated. Cells were washed with 2 mL PBS then treated with 0.05% trypsin/0.53 mM EDTA (Fisher) for 3 min at RT. Cells were collected and then pelleted at 600 g for 2 min. The supernatant was aspirated and the cells were suspended in 10 uM dihydroethidium (DHE) (Life Technologies) and incubated for 10 min in the dark at RT while shaking Following this incubation, cells were kept until counting on a Becton Dickinson FACScan flow cytometer. 10,000 cells were counted and analyzed by FlowJo 7.6.4. Mean values of DHE fluorescence intensity were compared.

p-Akt S473 = assay: Western blot p-Akt S473 in SVR cells; assay type: cell-based, murine; conditions: 10 μM (ceramide C2 20 μM), 24 h
Experimental: (§3) A375, SVR, and A2058 cells were treated for 24 h with ceramide C2 (20 μM), (+)-solenopsin A ((+) Sol. A, 10 μM), (−)-solenopsin A ((−) Sol. A, 10 μM), or solenopsin analogs S11-S15 (10 μM). The expression of p-AKT S473, p-pMAPK 44/42, and B-actin was determined by western blotting.
(§4) A375, SVR, and A2058 cells treated with solenopsin A and analogs were evaluated by Western-blotting with pAkt S473, p-pMAPK 44/42, and β-actin (FIG. 5). Although the proliferation results were more or less similar in all three cell lines, the protein expressions varied. In A375's an up-regulation of pAkt S473 and p-pMAPK 44/42 could be seen for (+)- and (−)-solenopsin A, as well as for analogs S12-S15 (FIG. 5). […] The results for cell line A2058 is similar to A375, i.e. there is an up-regulation of p-Akt S473 and p-pMAPK 44/42 in the treatment groups compared to the control. […] Both human melanoma cell lines (A375 and A2058) are reactive oxygen driven tumors, whereas the murine angiosarcoma cell line (SVR) is not. […]
(§5) Cells were grown in T-25 flasks until 80% confluent followed by treatment for 24 h with 10 μM DMSO solutions of (+)-solenopsin A, (−)-solenopsin A, or analogs (S11-S15). Sample aliquots normalized for protein quantities were size fractionated by 10% SDS-PAGE, and the proteins were transferred to a PVDF membrane. […]

p-pMAPK 44/42 = assay: Western blot p-pMAPK 44/42 in SVR cells; assay type: cell-based, murine; conditions: 10 μM (ceramide C2 20 μM), 24 h
Experimental: as §3, §4, §5

Pseudomonas aeruginosa = conditions: Park et al. 2008; cited from earlier work
phosphoinositol-3 kinase = conditions: p53 deficient renal cell carcinoma cell line 786-O; Arbiser et al. 2007; cited from earlier work
angiogenesis = conditions: Arbiser et al., Blood 2007; cited from earlier work
[4] = biological target: neuronal nitric oxide synthase (Homo sapiens, UniProt P29475); conditions: Yi et al., Int J Toxicol 2003; cited from earlier work
Chain of neuronal nitric oxide synthase (P29475 whole entry): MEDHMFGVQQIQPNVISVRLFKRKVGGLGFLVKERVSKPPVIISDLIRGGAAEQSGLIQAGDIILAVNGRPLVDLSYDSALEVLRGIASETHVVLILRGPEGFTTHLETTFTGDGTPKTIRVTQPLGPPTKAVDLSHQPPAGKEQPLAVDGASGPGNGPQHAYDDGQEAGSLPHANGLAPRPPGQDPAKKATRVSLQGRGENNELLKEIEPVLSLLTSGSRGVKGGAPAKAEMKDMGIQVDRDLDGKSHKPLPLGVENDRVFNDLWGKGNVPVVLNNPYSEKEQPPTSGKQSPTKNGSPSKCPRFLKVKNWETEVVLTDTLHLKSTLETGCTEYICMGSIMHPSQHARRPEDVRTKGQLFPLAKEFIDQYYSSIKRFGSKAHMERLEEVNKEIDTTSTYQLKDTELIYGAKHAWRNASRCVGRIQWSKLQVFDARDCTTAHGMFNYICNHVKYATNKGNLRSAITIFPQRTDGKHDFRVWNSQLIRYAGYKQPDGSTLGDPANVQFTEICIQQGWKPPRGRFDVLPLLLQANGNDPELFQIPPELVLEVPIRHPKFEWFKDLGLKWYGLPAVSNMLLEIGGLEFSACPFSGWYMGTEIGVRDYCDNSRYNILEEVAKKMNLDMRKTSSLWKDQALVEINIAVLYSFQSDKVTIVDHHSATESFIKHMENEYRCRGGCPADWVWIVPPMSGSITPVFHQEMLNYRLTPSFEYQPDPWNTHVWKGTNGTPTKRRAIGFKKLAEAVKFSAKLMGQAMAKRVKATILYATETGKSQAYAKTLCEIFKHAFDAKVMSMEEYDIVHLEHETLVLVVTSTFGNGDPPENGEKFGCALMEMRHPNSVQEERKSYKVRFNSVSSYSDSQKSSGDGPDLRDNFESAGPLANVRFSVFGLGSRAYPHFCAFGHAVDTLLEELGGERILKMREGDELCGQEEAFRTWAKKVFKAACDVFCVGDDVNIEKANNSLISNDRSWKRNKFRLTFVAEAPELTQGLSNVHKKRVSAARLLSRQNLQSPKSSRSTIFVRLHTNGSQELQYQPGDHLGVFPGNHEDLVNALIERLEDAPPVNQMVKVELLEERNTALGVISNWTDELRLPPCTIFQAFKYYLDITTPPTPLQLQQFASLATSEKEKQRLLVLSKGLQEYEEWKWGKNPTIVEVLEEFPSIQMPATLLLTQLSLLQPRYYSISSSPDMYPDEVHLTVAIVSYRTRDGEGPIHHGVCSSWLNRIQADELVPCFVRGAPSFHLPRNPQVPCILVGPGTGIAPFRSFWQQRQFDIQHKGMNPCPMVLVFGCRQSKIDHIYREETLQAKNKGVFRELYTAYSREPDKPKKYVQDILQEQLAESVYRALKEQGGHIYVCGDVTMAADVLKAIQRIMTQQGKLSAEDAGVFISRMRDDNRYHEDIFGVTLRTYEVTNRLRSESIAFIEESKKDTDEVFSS

PTEN = assay: Lipid raft fractionation (sucrose density gradient), PTEN translocation to membrane rafts in A375 cells; assay type: cell-based, human; conditions: 50 μM (positive control), 1 h
Experimental: A375 cells were treated for 1 h with: ceramide C2 (50 μM), (+)-solenopsin A ((+) Sol. A, 20 μM), (−)-solenopsin A ((−) Sol. A, 20 μM), or solenopsin analogs S11-S15 (20 μM). Cells were lysed in 0.5% Brij96 in TNEV, loaded onto the 5-40% sucrose gradient, and centrifuged at 34,000 rpm at 4° C. for 22 h. Thirteen fractions were collected, starting from the top of the tube. Equal volumes of each fraction were analyzed by Western blotting with caveolin and PTEN antibodies. Caveolin serves a positive control for which fractions that contain lipid rafts.
Caveolin was used as a positive marker to identify lipid raft fractions and an anti-PTEN antibody was used to identify PTEN-containing fractions (FIG. 3). A375 cells were treated for 1 h with 20 μM of (+)-solenopsin, (−)-solenopsin, or analogs S11-S15. […]
Cells were grown in T-75 flasks until 80% confluent followed by treatment for 1 h with 20 μM DMSO solutions of (+)-solenopsin A, (−)-solenopsin A, analogs (S12-S15), or 50 μM of ceramide C2 in DMSO. […] Equal volumes of each fraction were analyzed by Western blot with relevant antibodies.
as §5

| Compound | antiproliferative effect [1] | antiproliferative effect [2] | antiproliferative effect [3] | oxygen consumption rate (OCR) compared to DMSO control (UM-SCC1A cells) | other results |
| --- | --- | --- | --- | --- | --- |
| CCCCCCCCCCCCCCCCCCCC1CC(C)CC(C)N1 (centres unmarked) [Compound S11, 2,4-Dimethyl-6-nonadecylpiperidine] | no significant antiproliferative effect | no significant antiproliferative effect | no significant antiproliferative effect | little change compared to the control | effect on superoxide levels (DHE fluorescence) (A375 cells): no effect on superoxide levels |
| CCCCCCCCCCCC1CCCC(C)N1 (centres unmarked) [Compound S12, 2-Methyl-6-undecylpiperidine] | anti-proliferative properties, although not as potent as solenopsin A itself; also recorded: clearly weaker than for the (−)- and (+)-solenopsin A | anti-proliferative properties, although not as potent as solenopsin A itself; also recorded: clearly weaker than for the (−)- and (+)-solenopsin A | anti-proliferative properties, although not as potent as solenopsin A itself; also recorded: clearly weaker than for the (−)- and (+)-solenopsin A | drastically reduced OCR | – |
| CCCCCCCCCCCCCCCC1CCCC(C)N1 (centres unmarked) [Compound S14, 2-Methyl-6-pentadecylpiperidine] | equally as effective as solenopsin A; also recorded: most potent analog | equally as effective as solenopsin A; also recorded: approximately equally as potent as (−)- and (+)-solenopsin A | equally as effective as solenopsin A; also recorded: most potent analog | drastically reduced OCR | expression of p-Akt S473 (p-Akt S473): down-regulated; expression of p-pMAPK 44/42 (p-pMAPK 44/42): down-regulated |
| CCCCCCCCCCC(O)C1CCCCN1 (centres unmarked) [Compound S15, 1-(Piperidin-2-yl)undecan-1-ol] | equally as effective as solenopsin A; also recorded: potent antiproliferative effect | equally as effective as solenopsin A; also recorded: potent antiproliferative effect; also recorded: most potent analog | equally as effective as solenopsin A; also recorded: potent antiproliferative effect | drastically reduced OCR | expression of p-Akt S473 (p-Akt S473): down-regulated; expression of p-pMAPK 44/42 (p-pMAPK 44/42): down-regulated |
| CCCCCCCCCCCC1CCCC(C)N1 (centres unmarked) [Solenopsin, 2-methyl-6-nundecylpiperidine] | – | – | – | – | quorum sensing in Pseudomonas aeruginosa (Pseudomonas aeruginosa): blocks quorum sensing; phosphoinositol-3 kinase (phosphoinositol-3 kinase): downregulated phosphoinositol-3 kinase; anti-angiogenic activity (angiogenesis): anti-angiogenic activity |
| CCCCCCCCCCCC1CCCC(C)N1 (centres unmarked) [isosolenopsin A, 2-methyl-6-nundecylpiperidine] | – | – | – | – | inhibition of neuronal nitric oxide synthase [4]: potent and selective inhibitor |
| Ceramide | – | – | – | – | amount of PTEN in the lipid raft fractions (PTEN): higher amount of PTEN in the lipid raft fractions |
